The term IC50 denotes the concentration that inhibits the measured activity by half.

We go through 30 molecules from ChEMBL document CHEMBL2176903, “P2-substituted N-acylprolylpyrrolidine inhibitors of prolyl oligopeptidase: biochemical evaluation, binding mode determination, and assessment in a cellular model of synucleinopathy” (J Med Chem, 2012).

A value given as a limit tells only on which side of the number the result lay.

Experiment [1] in a line: Inhibition of bovine testes DPP9 assessed as pNA release from Ala-Pro- p-nitroanilide substrate pre-incubated with enzyme for 15 min prior to substrate addition by […]. Details: species or system Bos taurus.
Experiment [2] addresses Dipeptidyl peptidase 2 (Homo sapiens, UniProt Q9UHL4). As to the kind of experiment: Inhibition of human seminal plasma DPP2 assessed as pNA release from Lys-Ala-p-nitroanilide substrate pre-incubated with enzyme for 15 min prior to substrate addition by […].
The target of experiment [3] is Dipeptidyl peptidase 4 (Homo sapiens, UniProt P27487). Put plainly: Inhibition of human seminal plasma DPP4 assessed as pNA release from Gly-Pro-p-nitroanilide substrate pre-incubated with enzyme for 15 min prior to substrate addition by […].
Sequence of Dipeptidyl peptidase 4 (P27487 whole entry): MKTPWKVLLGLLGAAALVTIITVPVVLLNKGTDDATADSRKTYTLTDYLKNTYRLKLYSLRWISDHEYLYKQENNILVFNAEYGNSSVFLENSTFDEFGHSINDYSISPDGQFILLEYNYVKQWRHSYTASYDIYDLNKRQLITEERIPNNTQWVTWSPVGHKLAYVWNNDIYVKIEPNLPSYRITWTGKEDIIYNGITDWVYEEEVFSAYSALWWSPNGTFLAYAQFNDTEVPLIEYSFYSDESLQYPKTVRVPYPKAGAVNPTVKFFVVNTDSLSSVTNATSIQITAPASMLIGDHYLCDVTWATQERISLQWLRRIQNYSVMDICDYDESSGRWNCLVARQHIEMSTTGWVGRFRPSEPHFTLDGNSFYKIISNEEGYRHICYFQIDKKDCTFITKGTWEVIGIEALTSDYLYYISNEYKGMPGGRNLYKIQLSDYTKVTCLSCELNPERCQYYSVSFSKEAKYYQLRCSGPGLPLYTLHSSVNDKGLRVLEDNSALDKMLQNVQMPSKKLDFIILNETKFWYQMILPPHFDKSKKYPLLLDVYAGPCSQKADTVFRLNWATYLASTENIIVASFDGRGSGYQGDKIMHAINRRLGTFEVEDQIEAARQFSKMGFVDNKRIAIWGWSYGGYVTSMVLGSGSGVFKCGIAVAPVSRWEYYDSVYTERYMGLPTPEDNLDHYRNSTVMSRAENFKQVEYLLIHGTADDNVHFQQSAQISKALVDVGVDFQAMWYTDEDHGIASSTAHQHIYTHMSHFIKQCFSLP
Experiment [4] deals with T1, Prolyl endopeptidase FAP (Mus musculus, UniProt P97321).
T1 sequence (P97321 whole entry): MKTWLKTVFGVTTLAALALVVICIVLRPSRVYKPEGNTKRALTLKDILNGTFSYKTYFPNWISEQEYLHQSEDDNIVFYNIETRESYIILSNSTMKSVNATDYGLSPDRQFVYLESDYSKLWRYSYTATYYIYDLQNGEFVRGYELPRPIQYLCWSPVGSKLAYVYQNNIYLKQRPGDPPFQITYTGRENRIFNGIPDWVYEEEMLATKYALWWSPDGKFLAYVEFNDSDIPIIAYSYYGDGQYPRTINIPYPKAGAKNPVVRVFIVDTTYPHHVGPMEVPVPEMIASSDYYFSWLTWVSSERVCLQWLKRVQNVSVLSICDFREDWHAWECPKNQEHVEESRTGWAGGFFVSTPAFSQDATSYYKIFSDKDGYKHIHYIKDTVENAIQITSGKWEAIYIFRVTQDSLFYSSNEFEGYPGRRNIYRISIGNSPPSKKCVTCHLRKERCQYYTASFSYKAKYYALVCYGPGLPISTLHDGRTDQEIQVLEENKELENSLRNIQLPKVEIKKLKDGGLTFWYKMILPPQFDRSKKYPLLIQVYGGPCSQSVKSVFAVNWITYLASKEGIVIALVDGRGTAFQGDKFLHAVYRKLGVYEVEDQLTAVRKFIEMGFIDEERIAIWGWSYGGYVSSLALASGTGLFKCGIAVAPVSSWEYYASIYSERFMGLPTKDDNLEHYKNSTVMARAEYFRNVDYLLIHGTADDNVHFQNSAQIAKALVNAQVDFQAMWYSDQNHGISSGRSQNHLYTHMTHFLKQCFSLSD
As to the kind of experiment: Inhibition of mouse recombinant FAP expressed in HEK293 cells assessed as pNA release from Ala-Pro-p-nitroanilide pre-incubated with enzyme for 15 mins prior to substrate addition by […]. Format: cell-based.

The target in experiment [5] is Prolyl endopeptidase (Sus scrofa, UniProt P23687). As to the kind of experiment: Inhibition of pig PREP expressed in Escherichia coli using Z-Gly-Pro-p-nitroanilide substrate.
Sequence of Prolyl endopeptidase (P23687 whole entry): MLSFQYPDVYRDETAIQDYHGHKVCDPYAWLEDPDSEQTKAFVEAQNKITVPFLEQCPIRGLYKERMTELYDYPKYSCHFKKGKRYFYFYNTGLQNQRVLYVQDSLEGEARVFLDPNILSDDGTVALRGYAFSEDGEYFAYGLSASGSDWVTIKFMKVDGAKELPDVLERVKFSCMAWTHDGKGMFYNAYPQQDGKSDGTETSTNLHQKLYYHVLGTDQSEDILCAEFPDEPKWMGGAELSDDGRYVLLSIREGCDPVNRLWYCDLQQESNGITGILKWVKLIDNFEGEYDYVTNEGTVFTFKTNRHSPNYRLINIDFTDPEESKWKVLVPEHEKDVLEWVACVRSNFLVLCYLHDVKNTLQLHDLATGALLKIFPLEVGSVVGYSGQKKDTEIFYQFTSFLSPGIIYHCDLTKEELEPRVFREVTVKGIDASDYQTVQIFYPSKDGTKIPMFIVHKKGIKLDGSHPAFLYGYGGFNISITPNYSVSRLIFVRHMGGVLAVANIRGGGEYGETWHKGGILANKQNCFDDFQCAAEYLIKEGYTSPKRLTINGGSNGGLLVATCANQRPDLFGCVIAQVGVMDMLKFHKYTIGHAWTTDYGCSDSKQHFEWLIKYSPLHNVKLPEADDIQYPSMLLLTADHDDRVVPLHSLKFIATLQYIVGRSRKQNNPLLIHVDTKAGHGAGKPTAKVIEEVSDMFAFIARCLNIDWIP

With `CC(C)(C)OC(=O)N1CCN(Cc2cn([C@H]3C[C@@H](C(=O)N4CCCC4)N(C(=O)CCCc4ccccc4)C3)nn2)CC1`, the IC50 is 0.6 µM in experiment [1]; over 100 µM in experiment [2]; over 100 µM in experiment [3]; over 100 µM in experiment [4]; 0.11 µM in experiment [5].

On to `O=C([C@@H]1C[C@H](n2cc(-c3ccccn3)nn2)CN1C(=O)CCCc1ccccc1)N1CCCC1`, for which the 50% inhibitory concentration (IC50) was over 100 µM in experiment [1]; over 100 µM in experiment [2]; over 100 µM in experiment [3]; over 100 µM in experiment [4]; 0.069 µM in experiment [5].

Take `CC(C)(C)OC(=O)NCc1cn([C@@H]2C[C@@H](C(=O)N3CCCC3)N(C(=O)CCCc3ccccc3)C2)nn1`: the IC50 was over 100 µM in experiment [1]; over 100 µM in experiment [2]; over 100 µM in experiment [3]; over 100 µM in experiment [4]; 0.28 µM in experiment [5].

With `O=C([C@@H]1CCCN1C(=O)CCCc1ccccc1)N1CCCC1`, the 50% inhibitory concentration (IC50) in experiment [1], in experiment [2], in experiment [3] and in experiment [4] was over 100 µM each time.

Take `O=C([C@@H]1C[C@H](n2cc(CN3CCOCC3)nn2)CN1C(=O)CCCc1ccccc1)N1CCCC1`: the half-maximal inhibitory concentration (IC50) is 1.1 µM in experiment [1]; over 100 µM in experiment [2]; over 50 µM in experiment [3]; over 100 µM in experiment [4]; 0.24 µM in experiment [5].

In the case of `C[Si](C)(C)c1cn([C@H]2C[C@@H](C(=O)N3CCCC3)N(C(=O)OCc3ccccc3)C2)nn1`, the half-maximal inhibitory concentration (IC50) in experiment [1] was over 100 µM; in experiment [2], over 100 µM; in experiment [3], over 100 µM; in experiment [4], over 100 µM; in experiment [5], 0.956 µM.

For `O=C([C@@H]1C[C@H](n2cc(-c3ccc(F)cc3)nn2)CN1C(=O)CCCc1ccccc1)N1CCCC1`, the half-inhibitory concentration (IC50) in experiment [1] is over 100 µM; in experiment [2], over 100 µM; in experiment [3], over 100 µM; in experiment [5], 0.033 µM.

`CC(C)(C)OC(=O)NCc1cn([C@H]2C[C@@H](C(=O)N3CCCC3)N(C(=O)OCc3ccccc3)C2)nn1`: the half-maximal inhibitory concentration (IC50) in experiment [1] is over 10 µM; in experiment [2], over 100 µM; in experiment [3] it was over 100 µM; in experiment [4], over 100 µM; in experiment [5] it was 0.141 µM.

In the case of `O=C([C@@H]1C[C@H](n2cc(C3CCCCC3)nn2)CN1C(=O)CCCc1ccccc1)N1CCCC1`, the IC50 in experiment [1] was over 100 µM; in experiment [2], over 100 µM; in experiment [3] it was over 100 µM; in experiment [4] it was over 5 µM; in experiment [5], 0.147 µM.

On to `O=C([C@@H]1C[C@H](n2cc(-c3ccccc3)nn2)CN1C(=O)CCCc1ccccc1)N1CCCC1`, for which the IC50 in experiment [1] was over 100 µM; in experiment [2], over 100 µM; in experiment [3], over 100 µM; in experiment [5], 0.17 µM.

For `O=C([C@@H]1C[C@H](n2cc(-c3ccccc3Cl)nn2)CN1C(=O)CCCc1ccccc1)N1CCCC1`, the IC50 was over 100 µM in experiment [1]; over 10 µM in experiment [2]; over 100 µM in experiment [3]; over 5 µM in experiment [4]; 0.023 µM in experiment [5].

Take `[N-]=[N+]=N[C@H]1C[C@@H](C(=O)N2CCCC2)N(C(=O)CCCc2ccccc2)C1`: the IC50 in experiment [1] was over 100 µM; in experiment [2], over 100 µM; in experiment [3] it was over 100 µM; in experiment [4], over 100 µM; in experiment [5] it was 0.142 µM.

Consider `NCc1cn([C@H]2C[C@@H](C(=O)N3CCCC3)N(C(=O)CCCc3ccccc3)C2)nn1`, for which the IC50 in experiment [1] was over 100 µM; in experiment [2], over 10 µM; in experiment [3], over 100 µM; in experiment [4], over 100 µM; in experiment [5], 0.17 µM.

In the case of `O=C([C@@H]1C[C@H](n2cc(-c3ccccc3)nn2)CN1C(=O)OCc1ccccc1)N1CCCC1`, the IC50 in experiment [1] was over 100 µM; in experiment [2], over 100 µM; in experiment [3] it was over 100 µM; in experiment [5] it was 0.478 µM.

Take `O=C([C@@H]1C[C@H](n2cc(C3CC3)nn2)CN1C(=O)CCCc1ccccc1)N1CCCC1`: the half-maximal inhibitory concentration (IC50) is over 10 µM in experiment [1]; over 100 µM in experiment [2]; over 100 µM in experiment [3]; over 100 µM in experiment [4]; 0.039 µM in experiment [5].

Regarding `[N-]=[N+]=N[C@@H]1C[C@@H](C(=O)N2CCCC2)N(C(=O)CCCc2ccccc2)C1`, the IC50 in experiment [1] was over 100 µM; in experiment [2] it was over 100 µM; in experiment [3], over 100 µM; in experiment [4], over 100 µM; in experiment [5], 0.304 µM.

Turning to `CN(C)Cc1cn([C@H]2C[C@@H](C(=O)N3CCCC3)N(C(=O)CCCc3ccccc3)C2)nn1`, the IC50 in experiment [1] was over 10 µM; in experiment [2] it was over 100 µM; in experiment [3], over 100 µM; in experiment [5], 0.024 µM.

As to `O=C([C@@H]1C[C@H](n2ccnn2)CN1C(=O)OCc1ccccc1)N1CCCC1`, the IC50 was 67 µM in experiment [1]; over 100 µM in experiment [2]; over 100 µM in experiment [3]; over 100 µM in experiment [4]; 1.16 µM in experiment [5].

With `O=C([C@@H]1C[C@@H](n2cc(-c3ccccc3)nn2)CN1C(=O)CCCc1ccccc1)N1CCCC1`, the IC50 in experiment [1] is over 50 µM; in experiment [2], over 100 µM; in experiment [3], over 100 µM; in experiment [5], 0.542 µM.

Consider `CC(C)(C)OC(=O)NCc1cn([C@H]2C[C@@H](C(=O)N3CCCC3)N(C(=O)CCCc3ccccc3)C2)nn1`, for which the half-inhibitory concentration (IC50) in experiment [1] is over 100 µM; in experiment [2] it was over 100 µM; in experiment [3] it was over 100 µM; in experiment [4] it was over 100 µM; in experiment [5], 0.032 µM.

On to `O=C([C@@H]1C[C@H](n2cc(-c3ccc(Br)cc3)nn2)CN1C(=O)CCCc1ccccc1)N1CCCC1`, for which the half-maximal inhibitory concentration (IC50) was over 10 µM in experiment [1]; over 100 µM in experiment [2]; over 100 µM in experiment [3]; over 100 µM in experiment [4]; 0.014 µM in experiment [5].

With `[N-]=[N+]=N[C@H]1C[C@@H](C(=O)N2CCCC2)N(C(=O)OCc2ccccc2)C1`, the IC50 in experiment [1] is over 100 µM; in experiment [2], over 100 µM; in experiment [3], over 100 µM; in experiment [4] it was over 100 µM; in experiment [5], 0.364 µM.

For `O=C([C@@H]1C[C@H](n2cc(COCc3ccccc3)nn2)CN1C(=O)CCCc1ccccc1)N1CCCC1`, the IC50 in experiment [1] is over 100 µM; in experiment [2], over 100 µM; in experiment [3], over 100 µM; in experiment [5], 0.131 µM.

For `O=C([C@@H]1C[C@H](n2cc(-c3ccccn3)nn2)CN1C(=O)OCc1ccccc1)N1CCCC1`, the IC50 in experiment [1] was 53 µM; in experiment [2], over 100 µM; in experiment [3], over 100 µM; in experiment [4] it was over 100 µM; in experiment [5], 0.357 µM.

Consider `O=C([C@@H]1C[C@H](n2cc(CN3CCNCC3)nn2)CN1C(=O)CCCc1ccccc1)N1CCCC1`, for which the IC50 in experiment [1] was 1.3 µM; in experiment [2], over 100 µM; in experiment [3], over 100 µM; in experiment [4], over 100 µM; in experiment [5], 0.1 µM.

Turning to `O=C([C@@H]1CCCN1C(=O)OCc1ccccc1)N1CCCC1`, the IC50 in experiment [1], in experiment [2], in experiment [3] and in experiment [4] was over 100 µM throughout.

`O=C([C@@H]1C[C@H](n2cc(-c3ccc(F)cc3F)nn2)CN1C(=O)CCCc1ccccc1)N1CCCC1`: the concentration for half-maximal inhibition (IC50) in experiment [1] was over 10 µM; in experiment [2] it was over 100 µM; in experiment [3] it was over 100 µM; in experiment [4] it was over 5 µM; in experiment [5], 0.024 µM.

`O=C([C@@H]1C[C@H](n2cc(-c3ccc(F)c(F)c3)nn2)CN1C(=O)CCCc1ccccc1)N1CCCC1`: the IC50 in experiment [1] is under 100 µM; in experiment [2] it was over 10 µM; in experiment [3], over 100 µM; in experiment [4], over 5 µM; in experiment [5] it was 0.0172 µM.

Take `N#C[C@@H]1CCCN1C(=O)[C@@H]1CCCN1C(=O)CCCc1ccccc1`: the IC50 in experiment [1] is over 100 µM; in experiment [2], over 100 µM; in experiment [3], over 100 µM; in experiment [4] it was over 10 µM.

Turning to `Cn1cnc(-c2cn([C@H]3C[C@@H](C(=O)N4CCCC4)N(C(=O)CCCc4ccccc4)C3)nn2)c1`, the IC50 in experiment [5] is 0.09 µM.
